Measurements published in ChEMBL document CHEMBL5260810, “Inhibition of bromodomain-containing protein 9 for the prevention of epigenetically-defined drug resistance” (Bioorg Med Chem Lett, 2017).

Key:
Type in all cases: functional, cell-based
BaF3 = test: Cytotoxicity against mouse BaF3 cells measured after 8 days; conditions: BaF3, 192 h
MM1.S = test: Cytotoxicity against human MM1.S cells measured after 8 days; conditions: 192 h
NCI-H1930 = test: Cytotoxicity against human NCI-H1930 cells measured after 8 days; conditions: NCI-H1930, 192 h
ML-2 = test: Cytotoxicity against human ML-2 cells measured after 8 days; conditions: ML-2, 192 h
[1] = Cytotoxicity against human NCI-H2804 cells measured after 8 days; conditions: NCI-H2804, 192 h
[2] = Cytotoxicity against human RERF-LC-KJ cells measured after 8 days; conditions: 192 h
[3] = Cytotoxicity against human NCE-G 96 cells measured after 8 days; conditions: NCE-G 96, 192 h
[4] = Cytotoxicity against human GOTO.P3 cells measured after 8 days; conditions: GOTO.P3, 192 h
[5] = Cytotoxicity against human NB(TU)1 cells measured after 8 days; conditions: NB(TU)1, 192 h
SF-539 = test: Cytotoxicity against human SF-539 cells measured after 8 days; conditions: SF-539, 192 h
SK-N-AS = test: Cytotoxicity against human SK-N-AS cells measured after 8 days; conditions: 192 h
SNB-19 = test: Cytotoxicity against human SNB-19 cells measured after 8 days; conditions: SNB-19, 192 h
A2780 = test: Cytotoxicity against human A2780 cells measured after 8 days; conditions: A2780, 192 h
[6] = Cytotoxicity against human COV362 cells measured after 8 days; conditions: COV362, 192 h
[7] = Cytotoxicity against human COV413A cells measured after 8 days; conditions: 192 h
[8] = Cytotoxicity against human COV434 cells measured after 8 days; conditions: COV434, 192 h
[9] = Cytotoxicity against mouse 66cl-4 cells measured after 8 days; conditions: 66cl-4, 192 h
EFM-19 = test: Cytotoxicity against human EFM-19 cells measured after 8 days; conditions: EFM-19, 192 h
[10] = Cytotoxicity against human HCC1159 cells measured after 8 days; conditions: HCC1159, 192 h
KURAMOCHI = test: Cytotoxicity against human KURAMOCHI cells measured after 8 days; conditions: 192 h
OVCAR-5 = test: Cytotoxicity against human OVCAR-5 cells measured after 8 days; conditions: OVCAR-5, 192 h
SW982 = test: Cytotoxicity against human SW982 cells measured after 8 days; conditions: SW982, 192 h
RMG-I = test: Cytotoxicity against human RMG-I cells measured after 8 days; conditions: 192 h
SK-OV-3 = test: Cytotoxicity against human SK-OV-3 cells measured after 8 days; conditions: SK-OV-3, 192 h
SW626 = test: Cytotoxicity against human SW626 cells measured after 8 days; conditions: SW626, 192 h
BXPC-3 = test: Cytotoxicity against human BXPC-3 cells measured after 8 days; conditions: BXPC-3, 192 h
Ca-Ski = test: Cytotoxicity against human Ca-Ski cells measured after 8 days; conditions: 192 h
HT-3 = test: Cytotoxicity against human HT-3 cells measured after 8 days; conditions: HT-3, 192 h
SISO = test: Cytotoxicity against human SISO cells measured after 8 days; conditions: 192 h
[11] = Cytotoxicity against human KP-3 cells measured after 8 days; conditions: KP-3, 192 h
[12] = Cytotoxicity against human KPP14388 LN cells measured after 8 days; conditions: 192 h
[13] = Cytotoxicity against human KR7110 cells measured after 8 days; conditions: KR7110, 192 h
Panc02 = test: Cytotoxicity against mouse Panc02 cells measured after 8 days; conditions: Panc02, 192 h
[14] = Cytotoxicity against human HCC1263 cells measured after 8 days; conditions: HCC1263, 192 h
[15] = Cytotoxicity against human PK-8 cells measured after 8 days; conditions: PK-8, 192 h
SU.86.86 = test: Cytotoxicity against human SU-86-86 cells measured after 8 days; conditions: SU.86.86, 192 h
[16] = Cytotoxicity against human SUIT-2 cells measured after 8 days; conditions: SUIT-2, 192 h
[17] = Cytotoxicity against human BM-1604 cells measured after 8 days; conditions: BM-1604, 192 h
[18] = Cytotoxicity against human 4498-14745 Mel-BR3 cells measured after 8 days; conditions: 4498-14745 Mel-BR3, 192 h
[19] = Cytotoxicity against human 4498-16820 Mel-BR1 X1 cells measured after 8 days; conditions: 4498-16820 Mel-BR1 X1, 192 h
B16-F1 = test: Cytotoxicity against mouse B16-F1 cells measured after 8 days; conditions: B16-F1, 192 h
KYSE-140 = test: Cytotoxicity against human KYSE-140 cells measured after 8 days; conditions: KYSE-140, 192 h
KYSE-450 = test: Cytotoxicity against human KYSE-450 cells measured after 8 days; conditions: KYSE-450, 192 h
OE19 = test: Cytotoxicity against human OE19 cells measured after 8 days; conditions: OE19, 192 h
G-361 = test: Cytotoxicity against human G-361 cells measured after 8 days; conditions: G-361, 192 h
CAL-54 = test: Cytotoxicity against human CAL-54 cells measured after 8 days; conditions: CAL-54, 192 h
[20] = Cytotoxicity against human HCC1010 cells measured after 8 days; conditions: HCC1010, 192 h
[21] = Cytotoxicity against human MMAc cells measured after 8 days; conditions: 192 h
[22] = Cytotoxicity against human HLF cells measured after 8 days; conditions: 192 h
[23] = Cytotoxicity against human JHH-2 cells measured after 8 days; conditions: JHH-2, 192 h
PLC-PRF-5 = test: Cytotoxicity against human PLCPRF5 cells measured after 8 days; conditions: PLC-PRF-5, 192 h
SNU-449 = test: Cytotoxicity against human SNU-449 cells measured after 8 days; conditions: SNU-449, 192 h
[24] = Cytotoxicity against human Fu97 cells measured after 8 days; conditions: Fu97, 192 h
8505C = test: Cytotoxicity against human 8505C cells measured after 8 days; conditions: 192 h
SW780 = test: Cytotoxicity against human SW780 cells measured after 8 days; conditions: SW780, 192 h
AN3-CA = test: Cytotoxicity against human AN3-CA cells measured after 8 days; conditions: 192 h
[25] = Cytotoxicity against human HCC1534 cells measured after 8 days; conditions: HCC1534, 192 h
HEC-1B cell line = test: Cytotoxicity against human HEC-1B cell line measured after 8 days; conditions: 192 h
[26] = Cytotoxicity against human HEC-251 cells measured after 8 days; conditions: HEC-251, 192 h
SNG-M = test: Cytotoxicity against human SNG-M cells measured after 8 days; conditions: 192 h
PC-9 = test: Cytotoxicity against human PC-9 cells assessed as decrease in drug tolerant population supplemented with fresh medium containing compound every 3 days for 9 days in presence of erlotinib by Beckman Coulter counting method; conditions: time 9.0 day

C/C=C/Cn1cc(-c2ccc(C(C)(C)O)cc2OC)c2cc[nH]c2c1=O
IC50 (BaF3): 20 µM | IC50 (MM1.S): 20 µM | IC50 (NCI-H1930): 20 µM | IC50 (ML-2): 20 µM | IC50 [1]: 20 µM | IC50 [2]: 20 µM | IC50 [3]: 20 µM | IC50 [4]: 20 µM | IC50 [5]: 20 µM | IC50 (SF-539): 20 µM | IC50 (SK-N-AS): 20 µM | IC50 (SNB-19): 20 µM | IC50 (A2780): 20 µM | IC50 [6]: 20 µM | IC50 [7]: 20 µM | IC50 [8]: 20 µM | IC50 [9]: 20 µM | IC50 (EFM-19): 20 µM | IC50 [10]: 20 µM | IC50 (KURAMOCHI): 20 µM | IC50 (OVCAR-5): 20 µM | IC50 (SW982): 20 µM | IC50 (RMG-I): 20 µM | IC50 (SK-OV-3): 20 µM | IC50 (SW626): 20 µM | IC50 (BXPC-3): 20 µM | IC50 (Ca-Ski): 20 µM | IC50 (HT-3): 20 µM | IC50 (SISO): 20 µM | IC50 [11]: 20 µM | IC50 [12]: 20 µM | IC50 [13]: 20 µM | IC50 (Panc02): 20 µM | IC50 [14]: 20 µM | IC50 [15]: 20 µM | IC50 (SU.86.86): 20 µM | IC50 [16]: 20 µM | IC50 [17]: 20 µM | IC50 [18]: 20 µM | IC50 [19]: 20 µM | IC50 (B16-F1): 20 µM | IC50 (KYSE-140): 20 µM | IC50 (KYSE-450): 20 µM | IC50 (OE19): 20 µM | IC50 (G-361): 20 µM | IC50 (CAL-54): 20 µM | IC50 [20]: 20 µM | IC50 [21]: 20 µM | IC50 [22]: 20 µM | IC50 [23]: 20 µM | IC50 (PLC-PRF-5): 20 µM | IC50 (SNU-449): 20 µM | IC50 [24]: 20 µM | IC50 (8505C): 20 µM | IC50 (SW780): 20 µM | IC50 (AN3-CA): 20 µM | IC50 [25]: 20 µM | IC50 (HEC-1B cell line): 20 µM | IC50 [26]: 20 µM | IC50 (SNG-M): 20 µM | Activity (PC-9): Dose-Dependent Effect

C/C=C/Cn1cc(-c2ccc(C(=O)N3CCOCC3)cc2)c2cc[nH]c2c1=O
IC50 (BaF3): 20 µM | IC50 (MM1.S): 20 µM | IC50 (NCI-H1930): 20 µM | IC50 (ML-2): 20 µM | IC50 [1]: 20 µM | IC50 [2]: 20 µM | IC50 [3]: 20 µM | IC50 [4]: 20 µM | IC50 [5]: 20 µM | IC50 (SF-539): 20 µM | IC50 (SK-N-AS): 20 µM | IC50 (SNB-19): 20 µM | IC50 (A2780): 20 µM | IC50 [6]: 20 µM | IC50 [7]: 20 µM | IC50 [8]: 20 µM | IC50 [9]: 20 µM | IC50 (EFM-19): 20 µM | IC50 [10]: 20 µM | IC50 (KURAMOCHI): 20 µM | IC50 (OVCAR-5): 20 µM | IC50 (SW982): 20 µM | IC50 (RMG-I): 19.4 µM | IC50 (SK-OV-3): 20 µM | IC50 (SW626): 20 µM | IC50 (BXPC-3): 20 µM | IC50 (Ca-Ski): 20 µM | IC50 (HT-3): 20 µM | IC50 (SISO): 20 µM | IC50 [11]: 20 µM | IC50 [12]: 20 µM | IC50 [13]: 20 µM | IC50 (Panc02): 20 µM | IC50 [14]: 20 µM | IC50 [15]: 20 µM | IC50 (SU.86.86): 20 µM | IC50 [16]: 20 µM | IC50 [17]: 20 µM | IC50 [18]: 20 µM | IC50 [19]: 20 µM | IC50 (B16-F1): 13.5 µM | IC50 (KYSE-140): 20 µM | IC50 (KYSE-450): 20 µM | IC50 (OE19): 20 µM | IC50 (G-361): 20 µM | IC50 (CAL-54): 20 µM | IC50 [20]: 20 µM | IC50 [21]: 20 µM | IC50 [22]: 20 µM | IC50 [23]: 20 µM | IC50 (PLC-PRF-5): 20 µM | IC50 (SNU-449): 20 µM | IC50 [24]: 20 µM | IC50 (8505C): 20 µM | IC50 (SW780): 20 µM | IC50 (AN3-CA): 20 µM | IC50 [25]: 20 µM | IC50 (HEC-1B cell line): 10.6 µM | IC50 [26]: 20 µM | IC50 (SNG-M): 20 µM | Activity (PC-9): Dose-Dependent Effect
